US20260265304A1, “PEPTIDE INHIBITORS OF FOCAL ADHESION KINASE ACTIVITY AND USES THEREOF” (Arizona Board of Regents on Behalf of the University of …, priority 2019, published 2026)
Like-named read-outs stand apart in the source and are kept apart here. Positions of bridges follow the written chain, without caps; N, C: chain ends. Non-standard residues stand in square brackets, D forms with d. Residues, ends and D or L forms follow the SMILES beside them. R8 = C=CCCCCCC[C@@](C)(N)C(=O)O; R5 = C=CCCC[C@@](C)(N)C(=O)O; S5 = C=CCCC[C@](C)(N)C(=O)O

What was measured:
[1] = molecular target: T1, FAK FAT domain (biotinylated Avitag-FAT protein) (Homo sapiens, UniProt Q05397); experiment: Surface plasmon resonance (SPR) binding to immobilised FAT protein; conditions: for Kd: FAT protein immobilised, peptide 200 μM-0.01 μM, 1:1 binding model; for binding and inhibitory properties (SPR/FP) in words, compared to 1907: SAR discussion of SPR and FP data
T1 construct: biotinylated Avitag-FAT protein was diluted in running buffer
T1 sequence (Q05397 914-1045 limits assumed): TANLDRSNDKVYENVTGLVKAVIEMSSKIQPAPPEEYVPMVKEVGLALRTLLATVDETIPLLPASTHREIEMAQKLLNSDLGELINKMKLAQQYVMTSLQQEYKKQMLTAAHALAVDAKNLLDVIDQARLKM
Experimental: SPR binding studies were performed on a ForteBio Pioneer FE SPR system. In brief, a SADH Streptavidin in Dextran Hydrogel biosensor (ForteBio) was docked onto the flow cell and preconditioned with two injections of 10 mM NaOH, 1 M NaCl for 1 min at 50 μL/min. […] Empty channel 2 served as the reference control. After achieving a stable baseline, a concentration series (200 μM-0.01 μM) of peptide was prepared in final running buffer (100 mM Tris-HCl, 200 mM NaCl, 0.05% Tween-20, 5% DMSO) and injected using the OneStep gradient injection method at a flow rate of 75 μL/min. […] Raw SPR data were appropriately processed in Qdat software (ForteBio) by normalizing the baseline prior to injection, aligning the channels, subtraction of the reference channel, and blank subtraction. Kinetic data were fitted to a pseudo-first order 1:1 interaction binding model using to calculate KD. In addition, a steady-state model and Req data points were used to validate the binding affinity. Visual inspection of the SPR sensograms was performed to verify appropriate model fitting, lack of mass transport effects, return to baseline, and lack of irregular kinetics.

[2] = molecular target: T2, FAK FAT domain (paxillin-FAT binding) (Homo sapiens, UniProt Q05397); experiment: Competition fluorescence polarization (FP) assay, inhibition of TAMRA-LD2 binding to FAT
T2 construct: FP Buffer containing 20 μM FAT and 0.1 μM TAMRA-LD2
T2 sequence (Q05397 914-1045 limits assumed): T1 sequence (Q05397 914-1045 limits assumed)
Experimental: The FP assay buffer used was 20 mM Tris, 200 mM NaCl, 0.05% β-me, 0.1% Triton X-100, 5% glycerol, and 1× Halt protease inhibitor cocktail. […] Bodipy TMR FP optical module (2100-4100) was used as the mirror.
Wells with no FAT were used as a baseline value which was subtracted from the raw values to produce ΔmP values. The plate was read at every hour for four hours to test for time differences in IC50. The titration data was processed through GraphPad Prism to produce a dose response curve and a calculated IC50 with standard error (SE). A four-parameter dose-response inhibition model was utilized and the bottom fit was constrained to the lower plateau of the curve. Ki was determined from the following calculation:
P0 is the concentration of free protein and KD is calculated from the saturation curve. 150 is calculated by the following equation:
where PT is the total protein concentration, LT is the total labeled-ligand concentration, P0 is the positive root of P0^2+(KD+LT)*P0−PT, PL0=P−P0, PL50=PL0/2, L0=LT-PL0, and L50=LT-PL50.

Row | SMILES | Kd ([1]; SPR KD) [µM] | Ki [2] [µM] | Kd ([1]; read-out: SPR KD) [µM] | binding and inhibitory properties (SPR/FP) in words, compared to 1907 [1] | Ki ([2]; read-out: FP Ki) [µM]
1 | CC(=O)N[C@@H](CC(N)=O)C(=O)N[C@@H](CC(C)C)C(=O)N[C@]1(C)CCCCCCC=CCCC[C@@](C)(C(=O)N[C@@H](CCC(=O)O)C(=O)N[C@@H](CC(C)C)C(=O)N[C@@H](CC(N)=O)C(N)=O)NC(=O)[C@H](CC(C)C)NC(=O)[C@H](CC(C)C)NC(=O)[C@H](C)NC(=O)[C@H](CC(=O)O)NC(=O)[C@H](CC(C)C)NC(=O)[C@H](C)NC1=O [Peptide 2010, Ac-NLR8ALDALLS5ELN-NH2] (Ac-NL[R8]ALDALL[S5]ELN-NH2; staple 3-10) | 12.6 | 68.5 |  |  | 
2 | CC(=O)N[C@@H](CC(N)=O)C(=O)N[C@]1(C)CCCC=CCCC[C@@](C)(C(=O)N[C@@H](CC(=O)O)C(=O)N[C@@H](CCCNC(=N)N)C(=O)N[C@@H](CC(C)C)C(=O)N[C@@H](CC(C)C)C(=O)N[C@@H](CC(C)C)C(=O)N[C@@H](CCC(=O)O)C(=O)N[C@@H](CC(C)C)C(=O)N[C@@H](CC(N)=O)C(N)=O)NC(=O)[C@H](CCC(=O)O)NC(=O)[C@H](CO)NC1=O [Peptide 2024] (Ac-N[R5]SE[S5]DRLLLELN-NH2; staple 2-5) |  |  | > 200 | did not show much activity compared to 1907 | 412
3 | CSCC[C@@H]1NC(=O)[C@H](CC(C)C)NC(=O)[C@H](CCC(=O)O)NC(=O)[C@H](CC(=O)O)NC(=O)[C@H](CC(C)C)NC(=O)[C@H](CCC(=O)O)NC(=O)[C@](C)(NC(=O)[C@@H](NC(=O)[C@H](C)NC(=O)[C@H](CO)NC(C)=O)[C@@H](C)O)CCCCCCC=CCCC[C@@](C)(C(=O)N[C@@H](CO)C(=O)N[C@@H](CC(C)C)C(=O)N[C@@H](CO)C(=O)N[C@@H](CC(=O)O)C(N)=O)NC1=O [Peptide 1916, Ac-SATR8ELDELMS5SLSD-NH2] (Ac-SAT[R8]ELDELM[S5]SLSD-NH2; staple 4-11) |  |  | 32.3 | did not have comparable activity to LD2-derived 1907 | 47.5
4 | CC(=O)N[C@@H](CC(N)=O)C(=O)N[C@@H](CC(C)C)C(=O)N[C@]1(C)CCCCCCC=CCCC[C@@](C)(C(=O)N[C@@H](CCC(=O)O)C(=O)N[C@@H](Cc2c[nH]c3ccccc23)C(=O)N[C@@H](CC(N)=O)C(N)=O)NC(=O)[C@H](CC(C)C)NC(=O)[C@H](CC(C)C)NC(=O)[C@H](CCCNC(=N)N)NC(=O)[C@H](CC(=O)O)NC(=O)[C@H](Cc2c[nH]c3ccccc23)NC(=O)[C@H](CCC(=O)O)NC1=O [Peptide 1933, Ac-NLR8EWDRLLS5EWN-NH2] (Ac-NL[R8]EWDRLL[S5]EWN-NH2; staple 3-10) |  |  | 155 | worse binding and inhibitory properties compared to 1907 | 281
5 | CC(=O)N[C@@H](CC(N)=O)C(=O)N[C@@H](CC(C)C)C(=O)N[C@@H](CO)C(=O)N[C@@H](CCC(=O)O)C(=O)N[C@]1(C)CCCCCCC=CCCC[C@@](C)(C(=O)N[C@@H](CC(N)=O)C(N)=O)NC(=O)[C@H](CCC(=O)O)NC(=O)[C@H](CC(C)C)NC(=O)[C@H](C)NC(=O)[C@H](C)NC(=O)[C@H](CCCNC(=N)N)NC(=O)[C@H](CC(=O)O)NC1=O [Peptide 1925, Ac-NLSER8DRAALES5N-NH2] (Ac-NLSE[R8]DRAALE[S5]N-NH2; staple 5-12) |  |  | > 200 |  | 492
6 | CSCC[C@@H]1NC(=O)[C@H](Cc2ccccc2)NC(=O)[C@H](CCCNC(=N)N)NC(=O)[C@H](CC(C)C)NC(=O)[C@H](CCCNC(=N)N)NC(=O)[C@H](C)NC(=O)[C@](C)(NC(=O)[C@H](CCCNC(=N)N)NC(=O)[C@H](CCCNC(=N)N)NC(C)=O)CCCCCCC=CCCC[C@@](C)(C(=O)N[C@@H](CCC(N)=O)C(=O)N[C@@H](Cc2ccccc2)C(=O)N[C@@H](Cc2ccc(O)cc2)C(N)=O)NC1=O [Peptide 1929, Ac-RRR8ARLRFMS5QFY-NH2] (Ac-RR[R8]ARLRFM[S5]QFY-NH2; staple 3-10) |  |  | 77.6 | did not have comparable activity to LD2-derived 1907 | > 1250
7 | CC(=O)N[C@@H](CC(N)=O)C(=O)N[C@@H](CC(C)C)C(=O)N[C@]1(C)CCCCCCC=CCCC[C@@](C)(C(=O)N[C@@H](CCC(=O)O)C(=O)N[C@@H](CC(C)C)C(=O)N[C@@H](CC(N)=O)C(N)=O)NC(=O)[C@H](CC(C)C)NC(=O)[C@H](CC(C)C)NC(=O)[C@H](CCCNC(=N)N)NC(=O)[C@H](CC(=O)O)NC(=O)[C@H](CC(C)C)NC(=O)[C@H](C)NC1=O [Peptide 2009, Ac-NLR8ALDRLLS5ELN-NH2] (Ac-NL[R8]ALDRLL[S5]ELN-NH2; staple 3-10) |  |  | 6.96 |  | 26.7
8 | CC(=O)N[C@@H](CO)C(=O)N[C@@H](C)C(=O)N[C@H](C(=O)N[C@@H](CCCNC(=N)N)C(=O)N[C@@H](CCC(=O)O)C(=O)N[C@@]1(C)CCCC=CCCC[C@@](C)(C(=O)N[C@@H](C)C(=O)N[C@@H](CO)C(=O)N[C@@H](CC(C)C)C(=O)N[C@@H](CO)C(=O)N[C@@H](CC(=O)O)C(N)=O)NC(=O)[C@H](CC(C)C)NC(=O)[C@H](CCC(=O)O)NC(=O)[C@H](CC(=O)O)NC1=O)[C@@H](C)O [Peptide 1917, Ac-SATRES5DELS5ASLSD-NH2] (Ac-SATRE[S5]DEL[S5]ASLSD-NH2; staple 6-10) |  |  | 4.9 | similar, albeit lower activity than LD2-derived 1907 | 6.72
9 | CC(=O)N[C@@H](CC(N)=O)C(=O)N[C@@H](CC(C)C)C(=O)N[C@]1(C)CCCCCCC=CCCC[C@@](C)(C(=O)N[C@@H](CCC(N)=O)C(=O)N[C@@H](CC(C)C)C(=O)N[C@@H](CC(N)=O)C(N)=O)NC(=O)[C@H](CC(C)C)NC(=O)[C@H](CC(C)C)NC(=O)[C@H](CCCNC(=N)N)NC(=O)[C@H](CC(=O)O)NC(=O)[C@H](CC(C)C)NC(=O)[C@H](CCC(N)=O)NC1=O [Peptide 1910, Ac-NLR8QLDRLLS5QLN-NH2] (Ac-NL[R8]QLDRLL[S5]QLN-NH2; staple 3-10) |  |  | 24.8 | not as active as 1907 | 46.8
10 | CC(=O)N[C@@H](CC(N)=O)C(=O)N[C@@H](CC(C)C)C(=O)N[C@@H](CCCNC(=N)N)C(=O)N[C@@H](CCC(=O)O)C(=O)N[C@@]1(C)CCCC=CCCC[C@@](C)(C(=O)N[C@@H](CCCNC(=N)N)C(=O)N[C@@H](CCC(=O)O)C(=O)N[C@@H](CC(C)C)C(=O)N[C@@H](CC(N)=O)C(N)=O)NC(=O)[C@H](CC(C)C)NC(=O)[C@H](CCCNC(=N)N)NC(=O)[C@H](CC(=O)O)NC1=O [Peptide 1931, Ac-NLRES5DRLS5RELN-NH2] (Ac-NLRE[S5]DRL[S5]RELN-NH2; staple 5-9) |  |  | 13.7 |  | 14.5
11 | CC(=O)N[C@@H](CC(N)=O)C(=O)N[C@@H](CC(C)C)C(=O)N[C@@H](CO)C(=O)N[C@@H](CCC(=O)O)C(=O)N[C@@]1(C)CCCC=CCCC[C@@](C)(C(=O)N[C@@H](CC(C)C)C(=O)N[C@@H](CCC(=O)O)C(=O)N[C@@H](CC(C)C)C(=O)N[C@@H](CC(N)=O)C(N)=O)NC(=O)[C@H](CC(C)C)NC(=O)[C@H](CCCNC(=N)N)NC(=O)[C@H](CC(=O)O)NC1=O [Peptide 1919, Ac-NLSES5DRLS5LELN-NH2] (Ac-NLSE[S5]DRL[S5]LELN-NH2; staple 5-9) |  |  | 68.9 | did not show much activity compared to 1907 | 38.6
